# Test results as given in ChEMBL document CHEMBL6092203, “Discovery of Novel PROTAC-Based HPK1 Degraders with High Potency and Selectivity for Cancer Immunotherapy” (J Med Chem, 2024).
# Columns and labels:
# [1] = target: T1, Protein cereblon/Mitogen-activated protein kinase kinase kinase kinase 1 (Homo sapiens, UniProt Q92918+Q96SW2); test: PROTAC activity at CRBN/HPK1 in human Jurkat cells assessed as maximum degradation incubated for 24 hrs by Western blotting analysis; type: cell-based
# Target sequence in this assay (Q92918 whole entry, looked up): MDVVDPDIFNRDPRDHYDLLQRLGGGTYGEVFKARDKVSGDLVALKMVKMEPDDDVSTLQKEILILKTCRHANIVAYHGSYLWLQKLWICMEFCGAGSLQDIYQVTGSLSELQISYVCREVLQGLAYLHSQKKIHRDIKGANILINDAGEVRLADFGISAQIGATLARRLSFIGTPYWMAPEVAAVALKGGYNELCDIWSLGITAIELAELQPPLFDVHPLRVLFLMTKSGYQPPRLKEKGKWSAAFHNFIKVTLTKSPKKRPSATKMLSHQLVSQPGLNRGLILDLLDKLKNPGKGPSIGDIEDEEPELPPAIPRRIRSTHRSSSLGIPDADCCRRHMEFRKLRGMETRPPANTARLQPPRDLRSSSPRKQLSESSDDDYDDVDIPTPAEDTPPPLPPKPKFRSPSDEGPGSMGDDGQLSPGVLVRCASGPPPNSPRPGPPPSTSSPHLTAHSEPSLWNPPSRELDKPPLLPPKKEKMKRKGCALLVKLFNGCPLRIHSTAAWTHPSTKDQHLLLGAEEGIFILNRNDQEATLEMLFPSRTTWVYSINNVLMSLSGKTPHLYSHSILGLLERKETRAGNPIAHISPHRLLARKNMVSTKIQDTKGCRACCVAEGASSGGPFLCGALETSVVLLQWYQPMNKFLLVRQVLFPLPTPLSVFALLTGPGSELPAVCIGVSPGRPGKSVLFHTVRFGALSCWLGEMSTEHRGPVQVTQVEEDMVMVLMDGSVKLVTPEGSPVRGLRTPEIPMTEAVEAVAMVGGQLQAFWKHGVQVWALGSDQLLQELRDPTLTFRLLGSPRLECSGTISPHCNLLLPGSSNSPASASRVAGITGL
# Target sequence in this assay (Q96SW2 whole entry, looked up): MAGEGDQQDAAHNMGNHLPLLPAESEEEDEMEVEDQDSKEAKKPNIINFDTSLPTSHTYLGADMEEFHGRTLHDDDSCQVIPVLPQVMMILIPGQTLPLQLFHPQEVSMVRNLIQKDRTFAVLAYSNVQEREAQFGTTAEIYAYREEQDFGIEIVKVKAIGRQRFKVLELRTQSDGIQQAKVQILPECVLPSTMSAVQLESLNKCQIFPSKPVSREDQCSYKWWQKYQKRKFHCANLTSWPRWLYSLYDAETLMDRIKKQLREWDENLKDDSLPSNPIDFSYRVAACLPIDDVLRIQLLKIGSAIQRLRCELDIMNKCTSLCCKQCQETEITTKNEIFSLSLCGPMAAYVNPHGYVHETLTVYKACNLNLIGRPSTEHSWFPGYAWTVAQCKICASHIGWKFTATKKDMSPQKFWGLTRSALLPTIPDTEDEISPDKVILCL
# [2] = target: T1, Protein cereblon/Mitogen-activated protein kinase kinase kinase kinase 1; test: PROTAC activity at CRBN/HPK1 in human Jurkat cells incubated for 24 hrs by Western blotting analysis; type: cell-based
# Target sequence in this assay (Q92918 whole entry): as the sequence (Q92918 whole entry, looked up) above
# Target sequence in this assay (Q96SW2 whole entry): as the sequence (Q96SW2 whole entry, looked up) above
# [3] = Clearance in mouse at 2 mg/kg, iv measured upto 24 hrs by LC-MS analysis; type: ADME, organism-based; settings: in vivo
# [4] = Apparent volume of distribution in mouse at 2 mg/kg, iv measured upto 24 hrs by LC-MS analysis; type: ADME, organism-based; settings: in vivo
# [5] = AUC in mouse at 2 mg/kg, iv measured upto 24 hrs by LC-MS analysis; type: ADME, organism-based; settings: in vivo
# [6] = Half-life in mouse at 10 mg/kg measured upto 24 hrs by LC-MS analysis; type: ADME, organism-based; settings: in vivo
# [7] = AUC in mouse at 10 mg/kg, po measured upto 24 hrs by LC-MS analysis; type: ADME, organism-based; settings: in vivo
# [8] = Cmax in mouse at 10 mg/kg, po measured upto 24 hrs by LC-MS analysis; type: ADME, organism-based; settings: in vivo
# [9] = Half-life in mouse at 2 mg/kg, iv measured upto 24 hrs by LC-MS analysis; type: ADME, organism-based; settings: in vivo
# [10] = Oral bioavailability in mouse at 10 mg/kg measured upto 24 hrs by LC-MS analysis; type: ADME, organism-based; settings: in vivo
# [11] = target: Mitogen-activated protein kinase kinase kinase kinase 1 (Homo sapiens, UniProt Q92918); test: Inhibition of HPK1 (unknown origin)
# Mitogen-activated protein kinase kinase kinase kinase 1, sequence (Q92918 whole entry): as the sequence (Q92918 whole entry, looked up) above
# [12] = target: T2, Mitogen-activated protein kinase kinase kinase kinase 3 (Homo sapiens, UniProt Q8IVH8); test: Inhibition of GLK (unknown origin)
# T2 sequence (Q8IVH8 whole entry): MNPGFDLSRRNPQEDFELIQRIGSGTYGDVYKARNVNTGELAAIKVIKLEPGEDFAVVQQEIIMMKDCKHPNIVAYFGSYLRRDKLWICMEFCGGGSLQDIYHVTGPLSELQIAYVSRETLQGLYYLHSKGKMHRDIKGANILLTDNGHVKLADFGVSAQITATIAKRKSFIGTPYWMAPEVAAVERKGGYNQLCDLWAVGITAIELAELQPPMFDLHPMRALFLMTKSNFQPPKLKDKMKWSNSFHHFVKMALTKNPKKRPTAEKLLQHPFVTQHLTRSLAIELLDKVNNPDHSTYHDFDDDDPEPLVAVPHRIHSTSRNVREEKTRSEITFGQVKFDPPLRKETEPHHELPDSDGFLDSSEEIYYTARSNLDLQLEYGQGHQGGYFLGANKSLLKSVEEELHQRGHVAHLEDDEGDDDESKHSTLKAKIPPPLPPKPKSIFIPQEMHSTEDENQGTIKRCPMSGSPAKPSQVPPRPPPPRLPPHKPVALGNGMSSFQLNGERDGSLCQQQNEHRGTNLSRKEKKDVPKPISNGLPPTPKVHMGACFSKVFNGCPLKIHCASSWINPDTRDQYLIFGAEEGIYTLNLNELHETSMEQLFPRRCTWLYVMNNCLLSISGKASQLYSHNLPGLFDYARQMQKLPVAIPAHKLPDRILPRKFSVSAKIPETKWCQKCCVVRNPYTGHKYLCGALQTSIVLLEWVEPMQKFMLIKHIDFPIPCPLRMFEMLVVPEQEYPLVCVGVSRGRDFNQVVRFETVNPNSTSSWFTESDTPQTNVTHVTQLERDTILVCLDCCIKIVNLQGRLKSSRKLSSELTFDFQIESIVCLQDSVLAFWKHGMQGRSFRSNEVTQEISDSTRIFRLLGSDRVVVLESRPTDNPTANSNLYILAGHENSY
SMILES,Emax [1],DC50 [2],other results
CCN1CCC(n2cc(-c3c[nH]c4ncc(-c5cnc(OCCNC(=O)c6ccc(Cl)c(N7CCC(=O)NC7=O)c6)c(C)c5)nc34)cn2)CC1,86%,55 nM,–
CCN1CCC(n2cc(-c3c[nH]c4ncc(-c5ccc(N6CCC(CC7CCN(C(=O)c8ccc(Cl)c(N9CCC(=O)NC9=O)c8)CC7)CC6)c(F)c5)nc34)cn2)CC1,63%,176 nM,–
CCN1CCC(n2cc(-c3c[nH]c4ncc(-c5cnc(OCC6CCOCC6)c(F)c5)nc34)cn2)CC1,–,–,IC50 [11]: 2.67 nM; IC50 [12]: 63.6 nM
O=C1CCN(c2cc(C(=O)N3CCC(CC4CCN(c5ccc(-c6cnc7[nH]cc(-c8cnn(CC9CC9)c8)c7n6)cn5)CC4)CC3)ccc2Cl)C(=O)N1,52%,632 nM,–
CCN1CCC(n2cc(-c3c[nH]c4ncc(-c5ccc(N6CCC(F)(CN7CCN(C(=O)c8ccc(Cl)c(N9CCC(=O)NC9=O)c8)CC7)CC6)cc5)nc34)cn2)CC1,58%,230 nM,–
O=C1CCN(c2cc(C(=O)N3CCC(CC4CCN(c5ccc(-c6cnc7[nH]cc(-c8cnn([C@@H]9CCOC9)c8)c7n6)cn5)CC4)CC3)ccc2Cl)C(=O)N1,84%,83 nM,–
CCN1CCC(n2cc(-c3c[nH]c4ncc(-c5ccc(N6CCC(CC7CCN(C(=O)c8ccc(Cl)c(N9CCC(=O)NC9=O)c8)CC7C)CC6)cc5)nc34)cn2)CC1 (stereo not given),66%,23.5 nM,–
CCN1CCC(n2cc(-c3c[nH]c4ncc(-c5ccc(N6CCC(CC7CCN(C(=O)c8ccc(C)c(N9CCC(=O)NC9=O)c8)CC7)CC6)cc5)nc34)cn2)CC1,53%,616 nM,–
CCN1CCC(n2cc(-c3c[nH]c4ncc(-c5ccc(N6CCC(OC7CCN(C(=O)c8ccc(Cl)c(N9CCC(=O)NC9=O)c8)CC7)CC6)cc5)nc34)cn2)CC1,52%,386 nM,–
CCN1CCC(n2cc(-c3c[nH]c4ncc(-c5ccc(N6CCC(CC7CCCN(C(=O)c8ccc(Cl)c(N9CCC(=O)NC9=O)c8)CC7)CC6)nc5)nc34)cn2)CC1 (stereo not given),56%,385 nM,–
COCCn1cc(-c2c[nH]c3ncc(-c4ccc(N5CCC(CC6CCN(C(=O)c7ccc(Cl)c(N8CCC(=O)NC8=O)c7)CC6)CC5)nc4)nc23)cn1,76%,30.6 nM,–
CCN1CCC(n2cc(-c3c[nH]c4ncc(-c5ccc(N6CCC(CN7CCN(C(=O)c8ccc(Cl)c(N9CCC(=O)NC9=O)c8)CC7)CC6)nc5)nc34)cn2)CC1,77%,2.1 nM,–
CCN1CCC(n2cc(-c3c[nH]c4ncc(-c5ccc(N6CCC(OC7CCN(C(=O)c8ccc(Cl)c(N9CCC(=O)NC9=O)c8)CC7)CC6)c(F)c5)nc34)cn2)CC1,78%,7.2 nM,–
CCN1CCC(n2cc(-c3c[nH]c4ncc(-c5ccc(N6CCC(CC7CCN(C(=O)c8ccc(Cl)c(N9CCC(=O)NC9=O)c8)CC7)CC6)nc5)nc34)cn2)CC1,93%,1.2 nM,clearance [3]: 27.5 mL/min/kg; Vz [4]: 1030 mL/kg; AUC at 24 h [5]: 874 ng·h/mL; AUC at 24 h [7]: 295 ng·h/mL; Cmax [8]: 81.6 ng/mL; half-life [9]: 278 min; bioavailability [10]: 6.67%
CCN1CCC(n2cc(-c3c[nH]c4ncc(-c5ccc(N6CCC(OC7CCN(C(=O)c8ccc(Cl)c(N9CCC(=O)NC9=O)c8)CC7)CC6)c(C)c5)nc34)cn2)CC1,73%,29.3 nM,–
CCN1CCC(n2cc(-c3c[nH]c4ncc(-c5ccc(N6CCC(C)(CN7CCN(C(=O)c8ccc(Cl)c(N9CCC(=O)NC9=O)c8)CC7)CC6)cc5)nc34)cn2)CC1,81%,52.4 nM,–

# The next lines start with results.
Emax [1],DC50 [2],SMILES,other results
78%,5.3 nM,O=C1CCN(c2cc(C(=O)N3CCC(CC4CCN(c5ccc(-c6cnc7[nH]cc(-c8cnn(CCF)c8)c7n6)cn5)CC4)CC3)ccc2Cl)C(=O)N1,clearance [3]: 4.5 mL/min/kg; Vz [4]: 917 mL/kg; AUC at 24 h [5]: 7400 ng·h/mL; half-life [6]: 191 min; AUC at 24 h [7]: 9200 ng·h/mL; Cmax [8]: 4680 ng/mL; half-life [9]: 141 min; bioavailability [10]: 25.1%
87%,29.2 nM,CCn1cc(-c2c[nH]c3ncc(-c4ccc(N5CCC(CC6CCN(C(=O)c7ccc(Cl)c(N8CCC(=O)NC8=O)c7)CC6)CC5)nc4)nc23)cn1,–
93%,9.3 nM,Cn1cc(-c2c[nH]c3ncc(-c4ccc(N5CCC(CC6CCN(C(=O)c7ccc(Cl)c(N8CCC(=O)NC8=O)c7)CC6)CC5)nc4)nc23)cn1,Emax ([1]; tested as the 2H-labelled form): 89%; clearance [3]: 8.27 mL/min/kg; Vz [4]: 701 mL/kg; AUC at 24 h [5]: 4030 ng·h/mL; half-life [6]: 201 min; AUC at 24 h [7]: 2210 ng·h/mL; Cmax [8]: 840 ng/mL; half-life [9]: 58.8 min; bioavailability [10]: 17.7%
81%,18.7 nM,O=C1CCN(c2cc(C(=O)N3CCC(CC4CCN(c5ccc(-c6cnc7[nH]cc(-c8cnn(CC(F)F)c8)c7n6)cn5)CC4)CC3)ccc2Cl)C(=O)N1,–
67%,23.9 nM,O=C1CCN(c2cc(C(=O)N3CCC(CC4CCN(c5ccc(-c6cnc7[nH]cc(-c8cnn(C(F)F)c8)c7n6)cn5)CC4)CC3)ccc2Cl)C(=O)N1,–
92%,32.9 nM,O=C1CCN(c2cc(C(=O)N3CCC(CC4CCN(c5ccc(-c6cnc7[nH]cc(-c8cn[nH]c8)c7n6)cn5)CC4)CC3)ccc2Cl)C(=O)N1,–
84%,29 nM,O=C1CCN(c2cc(C(=O)N3CCC(CC4CCN(c5ccc(-c6cnc7[nH]cc(-c8cnn(CCO)c8)c7n6)cn5)CC4)CC3)ccc2Cl)C(=O)N1,–
–,12.7 nM,[2H]C([2H])([2H])n1cc(-c2c[nH]c3ncc(-c4ccc(N5CCC(CC6CCN(C(=O)c7ccc(Cl)c(N8CCC(=O)NC8=O)c7)CC6)CC5)nc4)nc23)cn1,–
87%,52.3 nM,O=C1CCN(c2cc(C(=O)N3CCC(CC4CCN(c5ccc(-c6cnc7[nH]cc(-c8cnn(C9CC9)c8)c7n6)cn5)CC4)CC3)ccc2Cl)C(=O)N1,–
64%,214 nM,CC(C)(C#N)n1cc(-c2c[nH]c3ncc(-c4ccc(N5CCC(CC6CCN(C(=O)c7ccc(Cl)c(N8CCC(=O)NC8=O)c7)CC6)CC5)nc4)nc23)cn1,–
